Reference: patent publication US8822503B2, “2-pyridone compounds” (Taisho Pharmaceutical Co., Ltd, priority 2009, dated 2014)

molecular target: T1, human liver GK (Homo sapiens, UniProt P35557); assay: GK activation test; assay type: biochemical; settings: test compound concentration needed to activate 50% of maximum activation ability; 4 mM 14C-labeled glucose, 2 mM ATP, room temperature, 20 minutes
T1 construct: GST (glutathione S-transferase) (N); made in house; host or cells: E. coli
T1 sequence (P35557 1-466 isoform P35557-2): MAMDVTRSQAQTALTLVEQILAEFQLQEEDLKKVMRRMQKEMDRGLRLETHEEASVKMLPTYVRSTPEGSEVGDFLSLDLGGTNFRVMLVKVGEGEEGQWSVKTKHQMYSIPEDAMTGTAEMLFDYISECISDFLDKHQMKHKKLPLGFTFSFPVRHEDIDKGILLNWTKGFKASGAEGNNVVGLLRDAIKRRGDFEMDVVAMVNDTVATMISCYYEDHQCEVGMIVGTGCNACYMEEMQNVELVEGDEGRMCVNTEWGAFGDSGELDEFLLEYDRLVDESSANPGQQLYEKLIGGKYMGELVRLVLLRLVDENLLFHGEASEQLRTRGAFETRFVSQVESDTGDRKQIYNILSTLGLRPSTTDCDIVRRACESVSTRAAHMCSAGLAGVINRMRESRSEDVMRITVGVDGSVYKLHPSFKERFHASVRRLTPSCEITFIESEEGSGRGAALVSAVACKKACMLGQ
Outline: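 GST-tagged human liver GK from E. coli (0.24 μg/well) with 4 mM 14C-glucose, 2 mM ATP in Hepes-KOH pH 7.1, KCl, MgCl2, DTT, 1% DMSO, 20 min room temperature. Labeled glucose 6-phosphate captured on anion resin, eluted and counted. EC50 = concentration giving half of maximal activation.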

| EC50 [nM] | SMILES |
| --- | --- |
| 10 to 500 | CSc1ccc(/C(=C\C2CCCC2)c2ccc(C(C)C)c(=O)[nH]2)cc1 [Example 1-3, 6-{(E)-2-Cyclopentyl-1-[4-(methylsulfanyl)phenyl]ethenyl}-3-(propan-2-yl)pyridin-2(1H)-one] |
| 10 to 500 | CSc1ccc(/C(=C\C2CCCC2)c2ccc(C3CC3)c(=O)[nH]2)cc1 [Example 1-5, 6-{(E)-2-Cyclopentyl-1-[4-(methylsulfanyl)phenyl]ethenyl}-3-cyclopropylpyridin-2(1H)-one] |
| 10 to 500 | CSc1ccc(/C(=C\C2CCCC2)c2ccc(C)c(=O)[nH]2)cc1 [Example 1-7, 6-{(E)-2-Cyclopentyl-1-[4-(methylsulfanyl)phenyl]ethenyl}-3-methylpyridin-2(1H)-one] |
| 500 to 3000 | Cc1ccc(/C(=C/C2CCCC2)c2ccc(S(C)(=O)=O)cc2)[nH]c1=O [Example 1-8, 6-{(E)-2-Cyclopentyl-1-[4-(methylsulfonyl)phenyl]ethenyl}-3-methylpyridin-2(1H)-one] |
| 10 to 500 | CCSc1ccc(/C(=C\C2CCCC2)c2ccc(C)c(=O)[nH]2)cc1 [Example 1-9, 6-{(E)-2-Cyclopentyl-1-[4-(ethylsulfanyl)phenyl]ethenyl}-3-methylpyridin-2(1H)-one] |
| 10 to 500 | CCS(=O)(=O)c1ccc(/C(=C\C2CCCC2)c2ccc(C)c(=O)[nH]2)cc1 [Example 1-10, 6-{(E)-2-Cyclopentyl-1-[4-(ethylsulfonyl)phenyl]ethenyl}-3-methylpyridin-2(1H)-one] |
| 10 to 500 | Cc1ccc(/C(=C/C2CCCC2)c2ccc(S(=O)(=O)C3CC3)cc2)[nH]c1=O [Example 1-11, 6-{(E)-2-Cyclopentyl-1-[4-(cyclopropylsulfonyl)phenyl]ethenyl}-3-methylpyridin-2(1H)-one] |
| 10 to 500 | CCc1ccc(/C(=C/C2CCCC2)c2ccc(SCCCO)cc2)[nH]c1=O [Example 1-12, 6-[(E)-2-Cyclopentyl-1-{4-[(3-hydroxypropyl)sulfanyl]phenyl}ethenyl]-3-ethylpyridin-2(1H)-one] |
| 10 to 500 | Cc1ccc(/C(=C/C2CCCC2)c2ccc(S(=O)(=O)N(C)C)cc2)[nH]c1=O [Example 1-14, 4-[(E)-2-Cyclopentyl-1-(5-methyl-6-oxo-1,6-dihydropyridin-2-yl)ethenyl]-N,N-dimethylbenzenesulfonamide] |
| 10 to 500 | Cc1ccc(/C(=C/C2CCCC2)c2ccc(S(=O)(=O)N(C)CCO)cc2)[nH]c1=O [Example 1-15, 4-[(E)-2-Cyclopentyl-1-(5-methyl-6-oxo-1,6-dihydropyridin-2-yl)ethenyl]-N-(2-hydroxyethyl)-N-methylbenzenesulfonamide] |
| 10 to 500 | CSc1ccc(/C(=C\C2CCCC2)c2ccc(C)c(=O)[nH]2)cc1Cl [Example 1-18, 6-{(E)-1-[3-Chloro-4-(methylsulfanyl)phenyl]-2-cyclopentylethenyl}-3-methylpyridin-2(1H)-one] |
| 500 to 3000 | CCN1CC(Sc2ccc(/C(=C\C3CCCC3)c3ccc(C)c(=O)[nH]3)cc2)C1 [Example 1-31, 6-[(E)-2-Cyclopentyl-1-{4-[(1-ethylazetidin-3-yl)sulfanyl]phenyl}ethenyl]-3-methylpyridin-2(1H)-one] |
| 500 to 3000 | COC(=O)c1ccc(/C(=C\C2CCCC2)c2ccc(C)c(=O)[nH]2)cc1 [Example 1-33, Methyl 4-[(E)-2-cyclopentyl-1-(5-methyl-6-oxo-1,6-dihydropyridin-2-yl)ethenyl]benzoate] |
| 500 to 3000 | CSc1ccc(/C(=C\C2CCCC2)c2ccc(C)c(=O)[nH]2)cn1 [Example 1-34, 6-{(E)-2-Cyclopentyl-1-[6-(methylsulfanyl)pyridin-3-yl]ethenyl}-3-methylpyridin-2(1H)-one] |
| 500 to 3000 | Cc1ccc(/C(=C/C2CCCC2)c2ccc(S(C)(=O)=O)nc2)[nH]c1=O [Example 1-35, 6-{(E)-2-Cyclopentyl-1-[6-(methylsulfonyl)pyridin-3-yl]ethenyl}-3-methylpyridin-2(1H)-one] |

More lines, now with the values behind:

| SMILES | EC50 [nM] |
| --- | --- |
| CS(=O)(=O)c1ccc(/C(=C\C2CCCC2)c2ccc(Cl)c(=O)[nH]2)cc1 [Example 1-2, 3-Chloro-6-{(E)-2-Cyclopentyl-1-[4-(methylsulfonyl)phenyl]ethenyl}pyridin-2(1H)-one] | 500 to 3000 |
| CC(C)c1ccc(/C(=C/C2CCCC2)c2ccc(S(C)(=O)=O)cc2)[nH]c1=O [Example 1-4, 6-{(E)-2-Cyclopentyl-1-[4-(methylsulfonyl)phenyl]ethenyl}-3-(propan-2-yl)pyridin-2(1H)-one] | 10 to 500 |
| CS(=O)(=O)c1ccc(/C(=C\C2CCCC2)c2ccc(C3CC3)c(=O)[nH]2)cc1 [Example 1-6, 6-{(E)-2-Cyclopentyl-1-[4-(methylsulfonyl)phenyl]ethenyl}-3-cyclopropylpyridin-2(1H)-one] | 10 to 500 |
| CCc1ccc(/C(=C/C2CCCC2)c2ccc(S(=O)(=O)CCCO)cc2)[nH]c1=O [Example 1-13, 6-[(E)-2-Cyclopentyl-1-{4-[(3-hydroxypropyl)sulfonyl]phenyl}ethenyl]-3-ethylpyridin-2(1H)-one] | 10 to 500 |
| CCc1ccc(/C(=C/C2CCCC2)c2ccc(OC)c(Cl)c2)[nH]c1=O [Example 1-16, 6-[(E)-1-(3-Chloro-4-methoxyphenyl)-2-cyclopentylethenyl]-3-ethylpyridin-2(1H)-one] | 10 to 500 |
| CCOc1ccc(/C(=C\C2CCCC2)c2ccc(CC)c(=O)[nH]2)cc1Cl [Example 1-17, 6-[(E)-1-(3-Chloro-4-ethoxyphenyl)-2-cyclopentylethenyl]-3-ethylpyridin-2(1H)-one] | 10 to 500 |
| Cc1ccc(/C(=C/C2CCCC2)c2ccc(S(C)(=O)=O)c(Cl)c2)[nH]c1=O [Example 1-19, 6-{(E)-1-[3-Chloro-4-(methylsulfonyl)phenyl]-2-cyclopentylethenyl}-3-methylpyridin-2(1H)-one] | 10 to 500 |
| CCc1ccc(/C(=C/C2CCCC2)c2ccc(SC)c(Cl)c2)[nH]c1=O [Example 1-20, 6-{(E)-1-[3-Chloro-4-(methylsulfanyl)phenyl]-2-cyclopentylethenyl}-3-ethylpyridin-2(1H)-one] | 10 to 500 |
| CCc1ccc(/C(=C/C2CCCC2)c2ccc(S(C)(=O)=O)c(Cl)c2)[nH]c1=O [Example 1-21, 6-{(E)-1-[3-Chloro-4-(methylsulfonyl)phenyl]-2-cyclopentylethenyl}-3-ethylpyridin-2(1H)-one] | 10 to 500 |
| Cc1ccc(/C(=C/C2CCCC2)c2ccc(SCCCO)c(Cl)c2)[nH]c1=O [Example 1-22, 6-[(E)-1-{3-Chloro-4-[(3-hydroxypropyl)sulfanyl]phenyl}-2-cyclopentylethenyl]-3-methylpyridin-2(1H)-one] | 10 to 500 |
| Cc1ccc(/C(=C/C2CCCC2)c2ccc(S(=O)(=O)CCCO)c(Cl)c2)[nH]c1=O [Example 1-23, 6-[(E)-1-{3-Chloro-4-[(3-hydroxypropyl)sulfonyl]phenyl}-2-cyclopentylethenyl]-3-methylpyridin-2(1H)-one] | 10 to 500 |
| CCN(CC)CCCSc1ccc(/C(=C\C2CCCC2)c2ccc(C)c(=O)[nH]2)cc1Cl [Example 1-24, 6-[(E)-1-(3-Chloro-4-{[3-(diethylamino)propyl]sulfanyl}phenyl)-2-cyclopentylethenyl]-3-methylpyridin-2(1H)-one] | 10 to 500 |
| CCN(CC)CCCS(=O)(=O)c1ccc(/C(=C\C2CCCC2)c2ccc(C)c(=O)[nH]2)cc1Cl [Example 1-25, 6-[(E)-1-(3-Chloro-4-{[3-(diethylamino)propyl]sulfonyl}phenyl)-2-cyclopentylethenyl]-3-methylpyridin-2(1H)-one] | 500 to 3000 |
| CCc1ccc(/C(=C/C2CCCC2)c2ccc(SCCCN(CC)CC)c(Cl)c2)[nH]c1=O [Example 1-26, 6-[(E)-1-(3-Chloro-4-{[3-(diethylamino)propyl]sulfanyl}phenyl)-2-cyclopentylethenyl]-3-ethylpyridin-2(1H)-one] | 10 to 500 |
| CCc1ccc(/C(=C/C2CCCC2)c2ccc(S(=O)(=O)CCCN(CC)CC)c(Cl)c2)[nH]c1=O [Example 1-27, 6-[(E)-1-(3-Chloro-4-{[3-(diethylamino)propyl]sulfonyl}phenyl)-2-cyclopentylethenyl]-3-ethylpyridin-2(1H)-one] | 10 to 500 |
| CS(=O)(=O)c1ccc(/C(=C\C2CCCC2)c2ccc(C(F)(F)F)c(=O)[nH]2)cc1 [Example 1-28, 6-{(E)-2-Cyclopentyl-1-[4-(methylsulfonyl)phenyl]ethenyl}-3-(trifluoromethyl)pyridin-2(1H)-one] | 500 to 3000 |
| O=c1[nH]c(/C(=C/C2CCCC2)c2ccc(SC3CC3)cc2)ccc1-c1ccccc1 [Example 1-29, 6-{(E)-2-Cyclopentyl-1-[4-(cyclopropylsulfanyl)phenyl]ethenyl}-3-phenylpyridin-2(1H)-one] | 10 to 500 |
| O=c1[nH]c(/C(=C/C2CCCC2)c2ccc(S(=O)(=O)C3CC3)cc2)ccc1CO [Example 1-30, 6-{(E)-2-Cyclopentyl-1-[4-(cyclopropylsulfonyl)phenyl]ethenyl}-3-(hydroxymethyl)pyridin-2(1H)-one] | 10 to 500 |
| CCN1CC(S(=O)(=O)c2ccc(/C(=C\C3CCCC3)c3ccc(C)c(=O)[nH]3)cc2)C1 [Example 1-32, 6-[(E)-2-Cyclopentyl-1-{4-[(1-ethylazetidin-3-yl)sulfonyl]phenyl}ethenyl]-3-methylpyridin-2(1H)-one] | 500 to 3000 |
